Experiments:
[1] = target: T1, human orexin 1 receptor (hOx1R) (Homo sapiens, UniProt O43613); experiment: Calcium accumulation in cells (FLIPR), antagonism of orexin A, hOx1R; format: cell-based; details: for Kd: cells expressing human orexin 1 receptor, IC50 vs orexin A converted by Cheng and Prusoff correction; for inhibition at 10 µM: measured at a concentration of 10 μM of compound (cells marked ^a)
T1 construct: expressed in transfected cells
T1 sequence (O43613 1-425): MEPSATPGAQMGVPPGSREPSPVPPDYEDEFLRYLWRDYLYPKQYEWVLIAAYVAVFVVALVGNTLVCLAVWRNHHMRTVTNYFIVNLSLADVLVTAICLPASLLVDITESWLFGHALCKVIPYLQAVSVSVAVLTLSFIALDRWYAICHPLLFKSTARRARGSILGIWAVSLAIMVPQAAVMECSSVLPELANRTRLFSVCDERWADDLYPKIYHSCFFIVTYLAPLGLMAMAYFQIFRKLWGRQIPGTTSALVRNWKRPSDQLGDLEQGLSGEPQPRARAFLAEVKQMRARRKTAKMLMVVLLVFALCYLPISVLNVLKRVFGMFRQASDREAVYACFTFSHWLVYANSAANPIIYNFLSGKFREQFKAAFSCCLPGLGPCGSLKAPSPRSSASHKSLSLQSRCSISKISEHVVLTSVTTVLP
Outline: (§1)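 Serum-starved receptor-expressing cells were loaded with Fluo-4-AM (2 μM) plus probenecid (0.1 mM) in HEPES buffer, pH 7.4, with 1% BSA, and Ca2+ fluorescence was read on FLIPR. Compounds (10^−9–10^−5 M) were added first, and orexin A was added one hour later to measure antagonism.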

[2] = target: T2, human orexin 2 receptor (hOx2R) (Homo sapiens, UniProt O43614); experiment: Calcium accumulation in cells (FLIPR), antagonism of orexin A, hOx2R; format: cell-based; details: for Kd: cells expressing human orexin 2 receptor, IC50 vs orexin A converted by Cheng and Prusoff correction; for inhibition at 10 µM: measured at a concentration of 10 μM of compound (cells marked ^a)
T2 construct: expressed in transfected cells
T2 sequence (O43614 1-444): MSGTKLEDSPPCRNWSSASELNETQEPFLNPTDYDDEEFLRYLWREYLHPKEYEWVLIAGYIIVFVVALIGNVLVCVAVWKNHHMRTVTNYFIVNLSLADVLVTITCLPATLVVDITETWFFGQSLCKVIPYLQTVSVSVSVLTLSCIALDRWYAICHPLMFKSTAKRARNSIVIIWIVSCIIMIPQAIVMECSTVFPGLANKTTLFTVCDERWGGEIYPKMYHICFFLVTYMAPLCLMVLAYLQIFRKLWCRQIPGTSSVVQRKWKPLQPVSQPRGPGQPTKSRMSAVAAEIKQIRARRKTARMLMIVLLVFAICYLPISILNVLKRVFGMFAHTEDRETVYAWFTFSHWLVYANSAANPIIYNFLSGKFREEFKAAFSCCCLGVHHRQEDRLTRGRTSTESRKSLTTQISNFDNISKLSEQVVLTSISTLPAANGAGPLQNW
Outline: as §1

[3] = target: T1, human orexin 1 receptor (hOx1R); experiment: Radioligand binding assay ([125I]orexin A competition), hOx1R; details: CHO or HEK cell membranes, 1 h room temperature
Procedure: (§2) For crude cell membrane preparations, cells (CHO, Chinese hamster ovary or HEK, human embryonic kidney) expressing human orexin 1 or human orexin 2 receptors, were washed with HEPES (10 mM, pH 7.5), scraped off the culture plates with the same buffer, and centrifuged at 4° C. for 5 min at 2500×g. The cell pellet was either stored at −80° C. or used directly. Before the experiments, cell membranes were re-suspended in binding assay buffer (10 mM HEPES, 0.5% (w/v) bovine serum albumin, pH 7.5) by homogenisation with a Polytron homogeniser at 50 Hz for 20 s. Cell membranes were also used as made available by commercial providers.
(§3) In initial saturation experiments (to calculate Bmax), cell homogenates (150 μl) were incubated with 25-300 pM of the radioligand ([^125I]orexin A, 50 μl), 8 concentrations in triplicates in the presence or absence Orexin A (1 μM, 50 μl) to define non specific binding. Bound radioactivity was measured, and data were analysed with the program XLFIT or Graphpad Prism. Protein concentration was determined according to the Bradford/BioRad Protein Assay Kit.
(§4) In competition experiments, cell homogenates (150 μl) were incubated in assay buffer (10 mM HEPES, pH 7.5, 0.5% (w/v) bovine serum albumin, 5 mM MgCl2, […], and tween 0.05%) for 1 h at room temperature with about […] of the radioligand ([^125I]orexin A, 2100 Ci/mmole, 50 μl), and with various concentrations of compounds of the invention (50 μl) in triplicates; non-specific binding was determined in the presence of Orexin A (1 μM). Reactions were terminated by vacuum filtration, 3 washes of ice cold wash buffer (Tris-HCl pH 7.4/10 mM, with NaCl 154 mM). Competition data is expressed in Table 1 as Kd [μM].

[4] = target: T2, human orexin 2 receptor (hOx2R); experiment: Radioligand binding assay ([125I]orexin A competition), hOx2R; details: CHO or HEK cell membranes, 1 h room temperature
Procedure: as §2, §3, §4

Row | Compound | Kd [1] [nM] | Kd [2] [nM] | Kd [3] [nM] | Kd [4] [nM] | inhibition at 10 µM [1] [%] | inhibition at 10 µM [2] [%]
1 | CN(C(=O)c1cccc2c1OCC2)[C@H](CCNC(=O)c1ccccn1)Cc1ccccc1 [Example 46, Pyridine-2-carboxylic acid {(8)-3-[(2,3-dihydro-benzofuran-7-carbonyl)-methyl-amino]-4-phenyl-butyl}-amide] | 1830 | 1000 | 397 | 870 |  | 
2 | CN(C(=O)c1ccc2ccccc2c1)[C@H](CCNC(=O)c1nc2ccccc2n1C)Cc1ccc(Cl)cc1 [Example 50, 1-Methyl-1H-benzoimidazole-2-carboxylic acid {(S)-4-(4-chloro-phenyl)-3-[methyl-(naphthalene-2-carbonyl)-amino]-butyl}-amide] | 32 | 59 | 783 | 1110 |  | 
3 | COc1ccc(C(=O)N(C)[C@H](CCNC(=O)c2nc3ccccc3n2C)Cc2ccccc2)cc1OC [Example 80, 1-Methyl-1H-benzoimidazole-2-carboxylic acid {(S)-3-[(3,4-dimethoxy-benzoyl)-methyl-amino]-4-phenyl-butyl}-amide] | 541 | 97 | 59 | 98 |  | 
4 | CN(C(=O)c1ccccc1)[C@H](CCNC(=O)c1cccc2cccnc12)Cc1ccccc1 [Example 49, Quinoline-8-carboxylic acid [(S)-3-(benzoyl-methyl-amino)-4-phenyl-butyl]-amide] |  | 414 | 2450 | 1070 | 9 | 
5 | CN(C(=O)c1cccc2ccccc12)[C@H](CCNC(=O)c1ccccn1)Cc1ccc(F)cc1 [Example 28, Pyridine-2-carboxylic acid {(8)-4-(4-fluoro-phenyl)-3-[methyl-(naphthalene-1-carbonyl)-amino]-butyl}-amide] | 28 | 4 | 579 | 371 |  | 
6 | CN(C(=O)c1cccc2c1OCCO2)[C@H](CCNC(=O)c1ccccn1)Cc1ccccc1 [Example 54, Pyridine-2-carboxylic acid {(S)-3-[(2,3-dihydro-benzo[1,4]dioxine-5-carbonyl)-methyl-amino]-4-phenyl-butyl}-amide] |  | 958 | > 10000 | 1730 | 9 | 
7 | CN(C(=O)c1ccc(Br)cc1)[C@H](CCNC(=O)c1ccccn1)Cc1ccccc1 [Example 99, Pyridine-2-carboxylic acid {(S)-3-[(4-bromo-benzoyl)-methyl-amino]-4-phenyl-butyl}-amide] | 1110 | 115 | 1940 | 822 |  | 
8 | CN(C(=O)c1ccccc1)[C@@H](Cc1ccccc1)[C@@H](O)CNC(=O)c1ccccn1 [Example 95, Pyridine-2-carboxylic acid [(2S,3S)-3-(benzoyl-methyl-amino)-2-hydroxy-4-phenyl-butyl]-amide] | 3430 | 140 | 3440 | 59 |  | 
9 | CN(C(=O)c1ccc2c(c1)OCO2)[C@H](CCNC(=O)c1cc2ccccc2n1C)Cc1ccccc1 [Example 75, 1-Methyl-1H-indole-2-carboxylic acid {(S)-3-[(benzo[1,3]dioxole-5-carbonyl)-methyl-amino]-4-phenyl-butyl}-amide] | 267 | 31 | 705 | 473 |  | 
10 | CN(C(=O)c1ccc2c(c1)OCO2)[C@H](CCNC(=O)c1nc2ccccc2n1C)Cc1ccccc1 [Example 31, 1-Methyl-1H-benzoimidazole-2-carboxylic acid {(S)-3-[(benzo[1,3]dioxole-5-carbonyl)-methyl-amino]-4-phenyl-butyl}-amide] | 57 | 43 | 164 | 410 |  | 
11 | CCOc1cc(OCC)cc(C(=O)N(C)[C@H](CCNC(=O)c2cccn2C)Cc2ccccc2)c1 [Example 122, 1-Methyl-1H-pyrrole-2-carboxylic acid {(S)-3-[(3,5-diethoxy-benzoyl)-methyl-amino]-4-phenyl-butyl}-amide] | 773 | 24 | 333 | 21 |  | 
12 | Cc1cc(C)cc(C(=O)N(C)[C@H](CCNC(=O)c2cccn2C)Cc2ccccc2)c1 [Example 125, 1-Methyl-1H-pyrrole-2-carboxylic acid {(S)-3-[(3,5-dimethyl-benzoyl)-methyl-amino]-4-phenyl-butyl}-amide] | 230 | 2 | 176 | 7 |  | 
13 | 1-Methyl-1H-pyrrole-2-carboxylic acid {(8)-3-[(3,5-difluoro-benzoyl)-methyl-amino]-4-phenyl-butyl}-amide [Example 118] | 1070 | 55 | 977 | 76 |  | 
14 | CN(C(=O)c1cccc2c1OCO2)[C@H](CCNC(=O)c1ccccn1)Cc1ccc(Cl)cc1 [Example 65, Pyridine-2-carboxylic acid [(S)-3-[(benzo[1,3]dioxole-4-carbonyl)-methyl-amino]-4-(4-chloro-phenyl)-butyl]-amide] |  |  | > 10000 | 6980 | 3 | 41
15 | CN(C(=O)c1cccc2ccccc12)[C@H](CCNC(=O)c1nc2ccccc2n1C)Cc1ccccc1 [Example 18, 1-Methyl-1H-benzoimidazole-2-carboxylic acid {(S)-3-[methyl-(naphthalene-1-carbonyl)-amino]-4-phenyl-butyl}-amide] | 100 | 14 | 332 | 129 |  | 
16 | CN(C(=O)c1ccc2c(c1)OCCO2)[C@H](CCNC(=O)c1ccccn1)Cc1ccccc1 [Example 71, Pyridine-2-carboxylic acid {(S)-3-[(2,3-dihydro-benzo[1,4]dioxine-6-carbonyl)-methyl-amino]-4-phenyl-butyl}-amide] | 1940 |  | 1610 | 9520 |  | 28
17 | CN(C(=O)c1cccc2[nH]ccc12)[C@H](CCNC(=O)c1ccccn1)Cc1ccccc1 [Example 11, 1H-Indole-4-carboxylic acid {(S)-1-benzyl-3-[(pyridine-2-carbonyl)-amino]-propyl}-methyl-amide] | 22 | 16 | 21 | 52 |  | 
18 | CN(C(=O)c1ccccc1)[C@H](CCNC(=O)c1ccc2c(c1)OCO2)Cc1ccccc1 [Example 93, Benzo[1,3]dioxole-5-carboxylic acid [(S)-3-(benzoyl-methyl-amino)-4-phenyl-butyl]-amide] |  | 164 | 3110 | 114 | 30 | 
19 | CN(C(=O)c1cccc2ccccc12)[C@H](CCNC(=O)c1nc2ccccc2n1C)Cc1ccc(F)cc1 [Example 24, 1-Methyl-1H-benzoimidazole-2-carboxylic acid {(S)-4-(4-fluoro-phenyl)-3-[methyl-(naphthalene-1-carbonyl)-amino]-butyl}-amide] | 124 | 5 | 1390 | 273 |  | 

Reference: patent publication US20100222396A1 (Novartis AG, priority 2009, published 2010)
